ChEMBL document CHEMBL1201862, “PubChem BioAssay data set” (2004)
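All cell lines were grown in 96-well plates and treated with compound for 48 hours. Abbreviation: GI50, concentration required for 50% inhibition of growth.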 Calls of active or inactive are those of the source. No stated cut-off is given here; in the data, active = GI50 up to about 1.1 µM and inactive = higher. Peptide text beside a SMILES is read from it. * marks the point of attachment. Cbz = O=C(OCc1ccccc1)*; NHNH2 = NN*

Tests used:
Assay in all cases: DTP human tumour cell line panel, 48 h
SK-MEL-5 = test system: SK-MEL-5
SK-MEL-28 = test system: SK-MEL-28
OVCAR-8 = test system: OVCAR-8
T47D = test system: T47D
ACHN = test system: ACHN
M14 = test system: M14
NCI-H226 = test system: NCI-H226
EKVX = test system: EKVX
Malme-3M = test system: Malme-3M
KM12 = test system: KM12
Hs-578T = test system: Hs-578T
RPMI-8226 = test system: RPMI-8226
SF-268 = test system: SF-268
MDA-MB-231 = test system: MDA-MB-231
PC-3 = test system: PC-3
HCC 2998 = test system: HCC 2998
SK-OV-3 = test system: SK-OV-3
NCI-H23 = test system: NCI-H23
HOP-62 = test system: HOP-62
CCRF-CEM = test system: CCRF-CEM

Structure (SMILES) | GI50 (SK-MEL-5) | GI50 (SK-MEL-28) | GI50 (OVCAR-8) | GI50 (T47D) | GI50 (ACHN) | GI50 (M14) | GI50 (NCI-H226) | GI50 (EKVX) | GI50 (Malme-3M) | GI50 (KM12) | GI50 (Hs-578T) | GI50 (RPMI-8226) | GI50 (SF-268) | GI50 (MDA-MB-231) | GI50 (PC-3) | GI50 (HCC 2998) | GI50 (SK-OV-3) | GI50 (NCI-H23) | GI50 (HOP-62) | GI50 (CCRF-CEM)
CC(=O)NC1C(OCc2ccccc2)OC(CO)C(O)C1OC(C)C(=O)NC(C(=O)NC(CCC(=O)NCCCCNc1c2ccccc2nc2cccc([N+](=O)[O-])c12)C(N)=O)C(C)C (configuration not stated) | 2.22 µM (inactive) | 2.67 µM (inactive) | 1.91 µM (inactive) | 1.82 µM (inactive) | 1.97 µM (inactive) | 1.62 µM (inactive) | 3.27 µM (inactive) | 2.65 µM (inactive) | 1.82 µM (inactive) | 2.36 µM (inactive) | 8.57 µM (inactive) | 0.76 µM (active) | 2.99 µM (inactive) | 2.71 µM (inactive) | 2.67 µM (inactive) | 1.01 µM (active) | 8.73 µM (inactive) | 1.79 µM (inactive) | 3.15 µM (inactive) | 
COC(=O)CC(NC(=O)OCc1ccccc1)C(=O)NC(CC(=O)OC)C(=O)NC(CC(=O)OC)C(=O)NC(CC(=O)OC)C(=O)NC(CC(=O)OC)C(=O)NC(CC(=O)OC)C(=O)NN (configuration not stated) (Cbz-D(OMe)D(OMe)D(OMe)D(OMe)D(OMe)D(OMe)-NHNH2; configuration not given here) | > 100 µM (inactive) | > 100 µM (inactive) | > 100 µM (inactive) | > 100 µM (inactive) | > 100 µM (inactive) | > 100 µM (inactive) |  |  |  | > 100 µM (inactive) | > 100 µM (inactive) | > 100 µM (inactive) | > 100 µM (inactive) | > 100 µM (inactive) | > 100 µM (inactive) | > 100 µM (inactive) | > 100 µM (inactive) |  | > 100 µM (inactive) | > 100 µM (inactive)
COC(=O)CC(c1cn(S(=O)(=O)c2ccc(C)cc2)c2ccccc12)C1C[C@@H](C(=O)OC)N(C(=O)OC(C)(C)C)C1=O (some centres not stated) | > 100 µM (inactive) | > 100 µM (inactive) | 43.4 µM (inactive) | 95.3 µM (inactive) | 12.5 µM (inactive) | > 100 µM (inactive) | > 100 µM (inactive) | > 100 µM (inactive) | 83.4 µM (inactive) | 71.9 µM (inactive) | > 100 µM (inactive) | 8.77 µM (inactive) | 53.6 µM (inactive) | 22.5 µM (inactive) | 47.6 µM (inactive) |  |  | 66.8 µM (inactive) | > 100 µM (inactive) | 9.18 µM (inactive)
Cc1ccc(/N=N/c2c(O)ccc3ccccc23)cc1 | > 100 µM (inactive) | > 100 µM (inactive) | > 100 µM (inactive) | > 100 µM (inactive) | > 100 µM (inactive) | > 100 µM (inactive) | > 100 µM (inactive) | > 100 µM (inactive) | > 100 µM (inactive) | 98.6 µM (inactive) | > 100 µM (inactive) | 99.3 µM (inactive) | > 100 µM (inactive) | > 100 µM (inactive) | 83 µM (inactive) |  | > 100 µM (inactive) | > 100 µM (inactive) | 82 µM (inactive) | 27.1 µM (inactive)
CCOC(=O)NC(=O)c1cn(CCCOC(=O)CCCCCCCCC(=O)OCCCn2cc(C(=O)NC(=O)OCC)c(=O)n(C)c2=O)c(=O)n(C)c1=O | > 100 µM (inactive) | > 100 µM (inactive) | > 79.4 µM (inactive) | > 100 µM (inactive) | > 100 µM (inactive) | > 100 µM (inactive) | > 100 µM (inactive) | > 100 µM (inactive) | > 100 µM (inactive) | > 100 µM (inactive) | > 100 µM (inactive) | > 100 µM (inactive) | > 100 µM (inactive) |  | > 100 µM (inactive) | > 100 µM (inactive) | > 100 µM (inactive) | > 100 µM (inactive) | > 70.6 µM (inactive) | > 46.5 µM (inactive)
Cc1ccc(S(=O)(=O)NC(=O)NCCC(=O)O)cc1 | > 100 µM (inactive) | > 100 µM (inactive) | > 100 µM (inactive) | > 100 µM (inactive) | > 100 µM (inactive) | > 100 µM (inactive) |  |  | > 100 µM (inactive) | > 100 µM (inactive) | > 100 µM (inactive) | > 100 µM (inactive) | > 100 µM (inactive) | > 100 µM (inactive) | > 100 µM (inactive) |  | > 100 µM (inactive) | 19.3 µM (inactive) | > 100 µM (inactive) | > 100 µM (inactive)
CC(=O)N[C@@H](Cc1ccc(O)cn1)C(=O)NCc1ccc2c(c1)OCO2 | > 100 µM (inactive) | > 100 µM (inactive) | > 100 µM (inactive) | > 100 µM (inactive) | > 100 µM (inactive) | > 100 µM (inactive) | > 100 µM (inactive) | > 100 µM (inactive) | > 100 µM (inactive) | > 100 µM (inactive) | > 100 µM (inactive) | > 100 µM (inactive) | > 100 µM (inactive) |  | > 100 µM (inactive) | > 100 µM (inactive) | > 100 µM (inactive) | > 100 µM (inactive) | > 100 µM (inactive) | > 100 µM (inactive)
